According to the NIST ThermoML archive (doi:10.1016/j.jct.2016.04.003):

What was measured:
[1] = refractive index (Na D-line) (dimensionless); conditions: 99 kPa, Liquid, Standard Abbe refractometry
[2] = for surface tension liquid-gas: Drop volume; for viscosity: Capillary tube (Ostwald / Ubbelohde) method
[3] = refractive index (Na D-line) (dimensionless); xn = mol fraction of the nth substance listed; conditions: 99 kPa, Liquid, Standard Abbe refractometry, x2 = 0
[4] = xn = mol fraction of the nth substance listed; conditions: x2 = 0; for surface tension liquid-gas: Drop volume; for viscosity / speed of sound / mass density: 99 kPa, Liquid; for viscosity: Capillary tube (Ostwald / Ubbelohde) method; for speed of sound: Frequency=3 MHz, Sing-around technique in a fixed-path interferometer; for mass density: Vibrating tube method

CCCC[n+]1ccccc1.F[B-](F)(F)F [1-butylpyridinium tetrafluoroborate]
Conditions	refractive index
[1], 293.15 K	1.44719

O [water]
Conditions	refractive index, 293.15 K	refractive index, 303.15 K	refractive index, 313.15 K	refractive index, 323.15 K	surface tension liquid-gas, 293.15 K [mN/m]	surface tension liquid-gas, 303.15 K [mN/m]	surface tension liquid-gas, 313.15 K [mN/m]	surface tension liquid-gas, 323.15 K [mN/m]
[1]	1.33297	1.33196	1.33061	1.32904	–	–	–	–
[2]	–	–	–	–	72.7	71.1	69.6	67.8

[2], 99 kPa, Liquid
Conditions	viscosity [mPa·s]
293.15 K	1.002
303.15 K	0.797
313.15 K	0.653
323.15 K	0.547

Conditions	speed of sound [m/s]
[2], 313.15 K, 99 kPa, Liquid, Frequency=3 MHz, Sing-around technique in a fixed-path interferometer	1529.2

Conditions	mass density [kg/m3]
[2], 323.15 K, 99 kPa, Liquid, Vibrating tube method	988.04

O [water] + CCCC[n+]1ccccc1.F[B-](F)(F)F
Conditions	mass density, [4] [kg/m3]	refractive index, [3]	speed of sound, [4] [m/s]	surface tension liquid-gas, [4] [mN/m]	viscosity, [4] [mPa·s]
293.15 K	–	1.33297	–	72.7	1.002
303.15 K	–	1.33196	–	71.1	0.797
313.15 K	–	1.33061	1529.2	69.6	0.653
323.15 K	988.04	1.32904	–	67.8	0.547

O [water] + CCC[n+]1ccccc1.F[B-](F)(F)F
Conditions	mass density, [4] [kg/m3]	refractive index, [3]	speed of sound, [4] [m/s]	surface tension liquid-gas, [4] [mN/m]	viscosity, [4] [mPa·s]
293.15 K	–	1.33297	–	72.7	1.002
303.15 K	–	1.33196	–	71.1	0.797
313.15 K	–	1.33061	1529.2	69.6	0.653
323.15 K	988.04	1.32904	–	67.8	0.547
